According to patent US6551815B1, “In situ denitrification” (University of New Mexico, priority 1997, dated 2003):
Several values for one entry are separate records, joined by “and”; a condition that tells them apart may be missing. Equal entries are not always repeated. Entries after “also recorded” stand apart in the source; their conditions may differ. Where two headings read alike, the source gives them in different places. Values belong to the molecule of their own block, whether it stands above or below them.

Tests used:
[1] = system: indigenous denitrifying bacteria naturally present in the groundwater; experiment: Serum bottle denitrification of Tuba City groundwater amended with carbon and phosphorus sources; assay type: cell-based; conditions: for concentration (as high as) at which activity of denitrifiers was not inhibited: initial nitrate about 21 mM
Experimental: In situ biological denitrification was studied as a groundwater remediation process with nitrogen as the final product at an UMTRA site in Tuba City, Ariz. Nitrate contaminated groundwater and soil from the contaminated field site were used, and in all experiments the initial nitrate concentration was about 1300 mg/L and the pH was 7.5-8. Denitrification was studied in a 2.5 L fermentor and in 120 mL serum bottles using a water to soil ratio of 100 mL/8 g and indigenous denitrifying bacteria naturally present in the groundwater. Oxygen was removed initially by purging with argon for 15 minutes. […] Nitrate, nitrite, carbon source, and pH changes were monitored during denitrification. Eh was indicated using a resazurin dye. […] For each carbon source, the stoichiometric equation is present, and a theoretical yield coefficient was determined from each stoichiometric equation.
The water samples were kept in 1000 mL plastic bottles and reserved in a refrigerator.
Chemicals used for phosphorus amendment included orthophosphate KH2PO4, trimetaphosphate Na3P3O9 (Sigma Co.) and polyphosphate (NaPO3)n (Aldrich Co.). All chemicals were A.C.S. reagent grade. Crushed sands were prepared by pulverizing the core samples (about 47 to 100 feet depth) from the Tuba City site using a pestle and mortar. This Navajo sandstone is a fine to fine grained unit with median grain size diameter (d50) about 0.11 mm. The sandstone was kept without contamination by organic chemicals.
(§1) Stock solution mixtures with neutral pH and total volume less than 15 mL for denitrification amendment, including carbon source and phosphorus sources, 0.05 mL of a 0.2% resazurin solution (redox potential indicator), and 8 g crushed sand for part experiments, were added into a 160 mL serum bottle, which was then autoclaved at 121° C. (250° F.) for 20 min. Groundwater sample was added under aseptic environment after the bottle cooled down, and the serum bottle was sealed with a butyl rubber stopper and crimped with an aluminum seal. Total volume of the liquid was about 100 to 120 mL. The solution was then purged with argon gas through a 22 gauge long needle for 15 min to ensure that an anaerobic environment was maintained, and another needle was used for gas exhaustion at the same time. The exhaustion needle was taken out before the spinal needle was done, and the serum bottle was pressurized under 7-10 psig. To keep the gas phase sterile, a gas filter with 0.2 μm pore size was used. Serum bottles were kept either at room temperature about 23±1° C. and shaken 2 to 3 times every day or kept at 16° C. in a Lindberg/Blue M constant temperature refrigerated shaker waterbath model RSWB3222A (A General Signal Company, NC). No denitrifying bacteria were inoculated to water samples, and pH was not controlled for all of the experiments. Denitrification process via the activity of the indigenous denitrifiers present in the groundwater was monitored. Disposable syringes were used for sampling.
The IC unit, Dionex DX 500 chromatography system (Dionex Co., CA), consists of a GP 40-1 gradient pump, an ED 40-1 electrochemical detector, and a LC 10-2 chromatography organizer with an lonpac AS 11 analytical column (4 mm) and an ASRS-1 (4 mm) anion self-regenerating suppresser as its main components. This lonpac AS 11 4-mm analytical column with functional group of alkanol quaternary ammonium is designed to resolve a number of inorganic anions and organic acid anions from a single sample injection in one gradient run using hydroxide eluent systems such as NaOH used in our experiment.

[2] = system: indigenous bacteria; experiment: Batch denitrification of Mountainview groundwater; assay type: cell-based
[3] = Phosphate precipitation in amended groundwater (serum bottles); assay type: physicochemical; conditions: for calcium phosphate precipitation as compared to orthophosphate: Tuba City groundwater
Experimental: as §1, with “The solution was then purged with argon gas through a 22 gauge long needle for 15 min to ensure that an anaerobic environment was maintained, and another needle was used for gas exhaustion at the same time.” left out
Triple serum bottle experiments were run in parallel at room temperature about 23±1° C.

[4] = complete = <1 mg/L for N, core sand, KH2PO4, 23±1° C.
[5] = groundwater with core sand, KH2PO4 100 mg/L, 23±1° C.
[6] = serum bottles purged with argon

Molecule: CC(=O)[O-].[K+] [Acetate, potassium acetate]
C/N molar ratio for nearly complete denitrification (Table 5) [1]: 1.425
C/N molar ratio, minimum for nearly complete denitrification [1]: 1.425
Denitrification efficiency [1]: 0% and 7-10%
minimum C/N molar ratio for complete denitrification [1]: 1.425
nitrate reduced after two months [1]: 5%
denitrification via indigenous bacteria ([2]; potassium acetate without TMP): did not work

Molecule: CCO [Ethanol, ethanol]
minimum C/N molar ratio for complete denitrification [1, 4]: 1.083
C/N molar ratio for nearly complete denitrification (Table 5) [1, 5]: 1.083
C/N molar ratio, minimum for nearly complete denitrification [1, 5]: 1.083
concentration (as high as) at which activity of denitrifiers was not inhibited [1]: 25 mM
denitrification time ([1]; orthophosphate, whole group of experiments finished, FIG. 5(f)): about 3.5 weeks
time at which nitrate reduction completed or stopped ([1]; polyphosphate 100 mg NaPO3/L, core sand, argon purge, 23±1° C., ethanol insufficient for complete denitrification): about 30 days

Molecule: CC(O)C(=O)[O-].[Na+] (stereo not shown) [Lactate, sodium lactate]
minimum C/N molar ratio for complete denitrification [1, 4]: 2
C/N molar ratio for nearly complete denitrification (Table 5) [1, 5]: 2.000
C/N molar ratio, minimum for nearly complete denitrification [1, 5]: 2.000

Molecule: CO [Methanol, methanol]
minimum C/N molar ratio for complete denitrification [1, 4]: 1
C/N molar ratio for nearly complete denitrification (Table 5) [1, 5]: 1.000
C/N molar ratio, minimum for nearly complete denitrification [1, 5]: 1.000
concentration (as high as) at which activity of denitrifiers was not inhibited [1]: 45 mM

calcium phosphate precipitation as compared to orthophosphate [3]: reduced calcium phosphate precipitation
Molecule: O=P1([O-])OP(=O)([O-])OP(=O)([O-])O1.[Na+].[Na+].[Na+] [TMP, trimetaphosphate]
time to complete denitrification ([1]; TMP 100 mg NaPO3/L and acetate, with sand, 16° C.): 28 days
denitrification time longer than with orthophosphate ([1]; TMP and acetate, with sand, 16° C.): 11 days
phosphate precipitate observed in groundwater [3, 6]: No phosphate precipitate was found in three weeks; also recorded: No phosphate precipitate was found while purging with argon, even in two weeks
denitrification via indigenous bacteria ([2]; groundwater amended with potassium acetate and 20 mg TMP/L): worked successfully

Molecule: O=P(O)(O)O [orthophosphate, reference compound]
phosphate precipitate observed in groundwater [3, 6]: Precipitate of orthophosphate (0.7-0.8 mM) formed

calcium phosphate precipitation as compared to orthophosphate [3]: reduced calcium phosphate precipitation
Molecule: polyphosphate
phosphate precipitate observed in groundwater ([3]; acetate and polyphosphate, no core sand, without purging with argon): Phosphate precipitate was not found; also recorded: White precipitates were not found until a week later
phosphate precipitate observed in groundwater [3, 6]: precipitate was found right after purging with argon; also recorded: white precipitates appeared while purging with argon
